# Test results published in patent publication US9943525B2, “Composition for reducing cell senescence comprising Rho-kinase inhibitor and use thereof” (Samsung Electronics Co., Ltd., priority 2014, dated 2018).
# Columns and labels:
# [1] = system: senescent fibroblasts (after 37 cell passages); experiment: mitochondrial membrane potential (JC-1) by flow cytometry; type: cell-based, human; conditions: vs control, p<0.05, FIG. 11
# Experimental: Mitochondrial membrane potentials were measured using a MitoProbe™ JC-1 Assay kit for Flow Cytometry (Life technologies, T3168) according to manufacturer's manuals. JC-1 is accumulated in mitochondria in a potential-dependent manner, and this accumulation is identified by fluorescence emission shift from green (about 529 nm) to red (about 590 nm). As a result, mitochondrial depolarization is identified by a decrease in a red/green fluorescence ratio. The mitochondrial membrane potentials were measured by excitation at 488 nm using a FACSCaliber (Beckton Dickinson) and using a flow cytometer by using 530/30 nm and 585/42 nm band pass filters. The results were analyzed using Cell Quest 3.2 software (Beckton Dickinson). FIG. 11 is a graph displaying action potentials of mitochondria. […] In FIG. 11, * indicates statistically significant (p<0.05). In FIG. 11, the vertical axis is mitochondrial membrane potential. “MMP” refers to mitochondria membrane potential.
# [2] = system: senescent myoblasts (11 cell passages); experiment: mitochondrial ROS (MitoSOX) by flow cytometry; type: cell-based, Human; conditions: vs control, p<0.05, FIG. 15
# Experimental: (§1) Myoblast cell lines (Human Skeletal Muscle Myoblasts, Lonza CC-2580 LOT:0000387550) were cultured in SkBM™-2 Basal Media (Lonza CC-3246) including an SkGM™-2 SingleQuots™ Kit (Lonza CC-3244) on plates coated with Collagen Type I (Greiner Bio One, 658950) in a 5% CO2 incubator at 37° C. Subculture was initiated when the cells were approximately 85% confluent in plates. Early subcultures were performed at a split ratio of 1:4, and later subcultures were performed at a split ratio of 1:2. When cell doubling time was 14 days, the cells were regarded as senescent myoblasts (cell passages 10 to 12).
# (§2) Senescent cells were seeded on each well of a 6-well plate coated with Collagen Type I (Greiner Bio One, 657950) in a concentration of 2,000 cells/well. Senescent myoblasts (passage 11) were cultured in the presence of 5 μM of Y-27632, 5 μM of FASUDIL, and 0.5 μM of SR3677 for 4 weeks in a 5% CO2 incubator at 37° C. The culture media were changed at every 4 days with new culture media supplemented with 5 μM of Y-27632, 5 μM of FASUDIL, and 0.5 μM of SR3677. A negative control group was prepared in the same manner, except that 0.05 (v/v) % of DMSO was used.
# ROS were measured using a 0.2 μM MitoSOX (Invitrogen, M3608) according to manufacturer's manuals. Light having a wavelength of 520 nm was irradiated to the cells using a FACSCaliber (Beckton Dickinson), and light emission was measured at 580 nm. The results were analyzed using Cell Quest 3.2 software (Beckton Dickinson).
# [3] = system: senescent myoblasts (11 cell passages); experiment: mitochondrial membrane potential (JC-1) by flow cytometry; type: cell-based, Human; conditions: vs control, p<0.05, FIG. 16
# Experimental: as §1, §2
# Mitochondrial membrane potentials were measured using a MitoProbe™ JC-1 Assay kit for Flow Cytometry (Life technologies, T3168) according to manufacturer's manuals. JC-1 is accumulated in mitochondria in a potential-dependent manner, and this accumulation is identified by fluorescence emission shift from green (about 529 nm) to red (about 590 nm). As a result, mitochondrial depolarization is identified by a decrease in a red/green fluorescence ratio. The mitochondrial membrane potentials were measured by excitation at 488 nm using a FACSCaliber (Beckton Dickinson) and using a flow cytometer by using 530/30 nm and 585/42 nm band pass filters. The results were analyzed using Cell Quest 3.2 software (Beckton Dickinson).
# [4] = system: senescent progeric fibroblasts (cell passage 17); experiment: mitochondrial ROS (MitoSOX) by flow cytometry; type: cell-based, human; conditions: vs control, p<0.05, FIG. 19
# Experimental: (§3) Progeric fibroblasts (Hutchinson-Gilford Progeria Syndrome Skin Fibroblasts, Coriell Cell Repositories, AG03198 B) were cultured in Dulbecco's Modified Eagle's Media (DMEM) supplemented with 10% fetal bovine serpm (FBS) and 100 unit/ml of penicillin, and 100 μg/ml of streptomycin (two antibiotics are purchased from Gibro-BRL and Grand Island, N.Y.) in a 5% CO2 incubator at 37° C. Subculturing was initiated when the cells were approximately 85% confluent in plates. Early subcultures were performed at a split ratio of 1:4, and later subcultures were performed at a split ratio of 1:2. When cell doubling time was 14 days, the cells were regarded as senescent progeric fibroblasts (cell passages 16 to 17).
# (§4) The senescent progeric fibroblasts (cell passage 17) were seeded on each well of a 6-well plate in a concentration of 2,000 cells/well and cultured in the presence of 5 μM of Y-27632, 5 μM of FASUDIL, and 0.5 μM of SR3677 for 4 weeks in a 5% CO2 incubator at 37° C. The culture media were changed at every 4 days with new culture media supplemented with 5 μM of Y-27632, 5 μM of FASUDIL, and 0.5 μM of SR3677. A negative control group was prepared in the same manner, except that 0.05 (v/v) % of DMSO was used.
# In addition, damage of mitochondria was identified by measuring reactive oxygen species (ROS) and mitochondrial membrane potentials which are well known in the art. ROS were measured using a 0.2 μM MitoSOX (Invitrogen, M3608) according to manufacturer's manuals. Light having a wavelength of 520 nm was irradiated to the cells using a FACSCaliber (Beckton Dickinson), and light emission was measured at 580 nm. The results were analyzed using Cell Quest 3.2 software (Beckton Dickinson). FIG. 19 is a graph displaying reactive oxygen species of progeric fibroblasts (cell passage 17) cultured in the presence of Rho-kinase inhibitors Y-27632 (5 μM), Fasudil (5 μM), and SR3677 (0.5 μM). […] In FIG. 19, * indicates statistically significant (p<0.05).
# [5] = system: senescent progeric fibroblasts (cell passage 17); experiment: mitochondrial membrane potential (JC-1) by flow cytometry; type: cell-based, human; conditions: vs control, p<0.05, FIG. 20
# Experimental: as §3, §4
# Mitochondrial membrane potentials were measured using a MitoProbe™ JC-1 Assay kit for Flow Cytometry (Life technologies, T3168) according to manufacturer's manuals. JC-1 is accumulated in mitochondria in a potential-dependent manner, and this accumulation is identified by fluorescence emission shift from green (about 529 nm) to red (about 590 nm). As a result, mitochondrial depolarization is identified by a decrease in a red/green fluorescence ratio. The mitochondrial membrane potentials were measured by excitation at 488 nm using a FACSCaliber (Beckton Dickinson) and using a flow cytometer by using 530/30 nm and 585/42 nm band pass filters. The results were analyzed using Cell Quest 3.2 software (Beckton Dickinson). FIG. 20 is a graph displaying action potentials of mitochondria. […] In FIG. 20, * indicates statistically significant (p<0.05). […]
smiles,measurement,setting,value
"O=S(=O)(c1cccc2cnccc12)N1CCCNCC1 [FASUDIL, 5-(1,4-diazepane-1-sulfonyl)isoquinoline]",action potentials of mitochondria (mitochondrial membrane potential),[1]; 5 μM,significantly increased
same,ROS,[2]; 5 μM,significantly reduced
same,action potentials of mitochondria (mitochondrial membrane potential),[3]; 5 μM,significantly increased
same,ROS,[4]; 5 μM,significantly reduced
same,action potentials of mitochondria (mitochondrial membrane potential),[5]; 5 μM,significantly increased
CN(C)CCOc1cc(-c2cn[nH]c2)ccc1NC(=O)C1COc2ccccc2O1 (stereo not drawn) [SR3677],action potentials of mitochondria (mitochondrial membrane potential),[1]; 0.5 μM,significantly increased
same,ROS,[2]; 0.5 μM,significantly reduced
same,action potentials of mitochondria (mitochondrial membrane potential),[3]; 0.5 μM,significantly increased
same,ROS,[4]; 0.5 μM,significantly reduced
same,action potentials of mitochondria (mitochondrial membrane potential),[5]; 0.5 μM,significantly increased
"C[C@@H](N)[C@H]1CC[C@H](C(=O)Nc2ccncc2)CC1 [Y-27632, (1R,4R)-4-((R)-1-aminoethyl)-N-(pyridin-4-yl)cyclohexanecarboxamide]",action potentials of mitochondria (mitochondrial membrane potential),[1]; 5 μM,significantly increased
same,ROS,[2]; 5 μM,significantly reduced
same,action potentials of mitochondria (mitochondrial membrane potential),[3]; 5 μM,significantly increased
same,ROS,[4]; 5 μM,significantly reduced
same,action potentials of mitochondria (mitochondrial membrane potential),[5]; 5 μM,significantly increased
